Test: Cholesterol solubility in solvents at saturation (dry residue weighed)
Assay type: physicochemical
Settings: 50° C.
Method: 3 solvent compared: Ethanol , Isopropanol, Heptane
Cholesterol was progressively added to each solvent at 50° C. up to saturation of the solution
Once saturation is achieved, a sample of the solution is taken and the solvent is evaporated with a rotary evaporator and/or in an oven. Dry residue of cholesterol is weighed to determine the solubility value

cholesterol solubility in ethanol (ethanol): 6.7% | cholesterol solubility in heptane (heptane): 4.3% | cholesterol solubility in isopropanol (isopropanol): 12.1%
SMILES: CC(C)CCC[C@@H](C)[C@H]1CC[C@H]2[C@@H]3CC=C4C[C@@H](O)CC[C@]4(C)[C@H]3CC[C@]12C [cholesterol, (3β)-cholest-5-en-3-ol]

Source: patent US20180303940A1, “LIPOSOME PRODUCTION USING ISOPROPANOL” (GLAXOSMITHKLINE BIOLOGICALS, S.A., priority 2011, published 2018)
